Like-named read-outs stand apart in the source and are kept apart here. Residues, ends and D or L forms follow the SMILES beside them. Some results are limits rather than exact numbers.

One series deals with E. coli (BL21). The class given is cell-based, Escherichia coli. An outline of the steps:
(§1)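 MIC in Mueller-Hinton broth with 1 × 10^6 CFU/mL bacteria, overnight cultures grown first in LB (E. coli, P. aeruginosa, S. aureus) or Todd-Hewitt (S. pyogenes); growth read as OD 600. Library members screened at half the parent peptide MIC; MBC as lowest concentration giving no colonies after plating MIC wells, 37°C overnight.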

The next series relates to S. pyogenes (M1). The class given is cell-based, Streptococcus pyogenes. The conditions noted are these: for MBC: M1; for MIC: M1, 16 h. An outline of the steps: as §1
The test system of another series is S. aureus (USA300). The format is cell-based, Staphylococcus aureus. The conditions noted are these: for MBC: USA300; for MIC: USA300, 16 h. An outline of the steps:
as §1

The next series deals with P. aeruginosa (PAO1). The format is cell-based, Pseudomonas aeruginosa. The conditions noted are these: for MBC: PAO1. The essentials: as §1
For the next series, the system named is sheep erythrocytes. The format is cell-based. The conditions noted are these: red cells of sheep, 1 h. The essentials: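 Washed defibrinated sheep blood, diluted 1:25 in PBS, incubated 1 h at 37 °C with peptide at the MIC-assay concentrations (sample:blood 1:10). Haemoglobin release read as supernatant absorbance at 450 nm; percent haemolysis normalised to PBS and 10% Triton controls.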

The subject of series [1] is GFP-expressing E. coli strain BL21. The series is described as follows: Live imaging of GFP leakage. The format is cell-based, Escherichia coli. The conditions noted are these: 16 μM peptide, 8 h, 37°C, images every 10 min. As for the experimental part:
To observe bacterial cell death in the presence of peptide in real time, fluorescence microscopy was employed using GFP-expressing E. coli strain BL21. MIC assays were conducted against BL21-GFP to determine the peptide concentration used for microscopy experiments. The peptide was suspended in PBS and added to diluted bacterial cells. GFP-expressing E. coli in the presence of peptide were imaged on the Eclipse Ti-E inverted microscope (Nikon) using GFP and DIC channels for 8 h at 37°C, with images taken every 10 min ([Fields et al., 2020]). Syn-xiamencin-2, a peptide with no detectable antimicrobial activity below 128 μM was also evaluated as a negative peptide candidate control.

Series [2] concerns human keratinocyte cell line (HaCaT). The series is described as follows: HaCaT cytotoxicity, ethidium homodimer assay. The format is cell-based. The conditions noted are these: 16 h, 37°C, DMEM + 10% FBS, normalised to saponin, triplicate. As for the experimental part: To assess cytotoxicity of optimized peptides in mammalian cells, an immortalized human keratinocyte cell line (HaCaT) was used. Cells were grown to 80% confluency in 24-well culture dishes and washed with PBS (Thermo Fisher). […] After incubation, the cells were washed with sterile PBS, followed by a covered incubation with 4 μM ethidium homodimer (Molecular Probes) for 30 min at room temperature. Fluorescence was measured using the Synergy H1 Microplate Reader set to 528 nm excitation, 617 nm emission, and a cutoff value of 590 nm. Saponin (0.1% wt/vol, Sigma) was added to each well followed by a covered incubation for 20 min at room temperature, followed by another measurement on the Synergy H1 Microplate Reader using the same settings to normalize readings to the number of cells per well and determine the percent cytotoxicity.

Setting [3] is: E. coli BL21, running text b43, unit printed nm.

By MIC is commonly meant the least concentration at which growth counts as inhibited. One may read the MBC as the lowest tested concentration that kills the bacteria rather than only halting them. Take `CC[C@H](C)[C@H](NC(=O)[C@H](CCCCN)NC(=O)[C@H](CCCCN)NC(=O)CNC(=O)[C@H](CCC(=O)O)NC(=O)[C@H](CCC(N)=O)NC(=O)[C@@H](NC(=O)[C@@H](NC(=O)[C@H](CCCCN)NC(=O)[C@H](CCCCN)NC(=O)[C@H](CC(C)C)NC(=O)[C@H](CCCNC(=N)N)NC(=O)[C@H](CCC(N)=O)NC(=O)[C@H](Cc1ccccc1)NC(=O)[C@@H](NC(=O)[C@H](CCCCN)NC(=O)[C@H](CCC(=O)O)NC(=O)[C@@H](NC(=O)[C@H](Cc1c[nH]c2ccccc12)NC(=O)[C@H](C)N)[C@@H](C)O)[C@@H](C)CC)[C@@H](C)O)[C@@H](C)CC)C(=O)N[C@@H](C)C(=O)N[C@@H](CCCCN)C(=O)N[C@@H](CCCNC(=N)N)C(=O)N[C@@H](C)C(=O)N[C@@H](Cc1c[nH]c2ccccc12)C(=O)O` [Syn-larvacin-39] (H-AWTEKIFQRLKKTIQEGKKIAKRAW-OH; N-terminus and C-terminus assumed): the MIC in the series on E. coli (BL21) (BL21) is 0.0156 µM; in the series with E. coli (BL21) (BL21, 16 h), under 0.0156 µM; in the series with E. coli (BL21) (setting [3]) it was “below 15.6 nM”; with S. pyogenes (M1), 2 µM; in the series on S. aureus (USA300) it was 1 µM; in the series with P. aeruginosa (PAO1) (PAO1, 16 h), 16 µM. In addition, the MBC result was “below 15.6 nM” in the series on E. coli (BL21) (setting [3]), 4 µM in the series with S. pyogenes (M1), 4 µM with S. aureus (USA300) and 64 µM with P. aeruginosa (PAO1). In the series on sheep erythrocytes, the “Percent Hemolysis” value came out at 14.4%. Further, the “GFP leakage / change in fluorescence” value in series [1] was “significant decrease in fluorescence”.
Turning to `CC[C@H](C)[C@H](NC(=O)[C@H](CCCNC(=N)N)NC(=O)[C@H](CCC(N)=O)NC(=O)[C@@H](NC(=O)[C@H](Cc1c[nH]c2ccccc12)NC(=O)[C@H](C)N)[C@@H](C)O)C(=O)N[C@@H](CCCCN)C(=O)N[C@@H](C)C(=O)N[C@@H](Cc1ccc(O)cc1)C(=O)N[C@@H](CC(C)C)C(=O)N[C@@H](CCCNC(=N)N)C(=O)N[C@@H](CCCNC(=N)N)C(=O)N[C@@H](CCC(=O)O)C(=O)N[C@H](C(=O)N[C@@H](CCCNC(=N)N)C(=O)N[C@@H](CCCCN)C(=O)N[C@@H](CCCNC(=N)N)C(=O)NCC(=O)N[C@@H](CCCNC(=N)N)C(=O)N[C@@H](CCCCN)C(=O)N[C@@H](C)C(=O)N[C@H](C(=O)N[C@H](C(=O)N[C@@H](C)C(=O)N[C@@H](Cc1c[nH]c2ccccc12)C(=O)O)[C@@H](C)CC)C(C)C)[C@@H](C)CC` [Syn-sordellicin-19] (H-AWTQRIKAYLRREIRKRGRKAVIAW-OH; N-terminus and C-terminus assumed), the MBC in the series on E. coli (BL21) (BL21) is 2 µM; with S. pyogenes (M1), 2 µM; with S. aureus (USA300), over 128 µM; in the series with P. aeruginosa (PAO1) it was 16 µM. In addition, the MIC in the series with E. coli (BL21) (BL21, 16 h) is 2 µM; in the series with S. pyogenes (M1), 2 µM; with S. aureus (USA300), over 128 µM; in the series on P. aeruginosa (PAO1) (PAO1, 16 h), 8 µM. Moreover, the “concentration at which peptide is cytotoxic” value in series [2] was at least 64 µM.
For `CC[C@H](C)[C@H](NC(=O)[C@H](CCCNC(=N)N)NC(=O)[C@H](CCC(N)=O)NC(=O)[C@H](Cc1c[nH]c2ccccc12)NC(=O)CNC(=O)[C@H](C)N)C(=O)N[C@@H](CCCCN)C(=O)N[C@@H](C)C(=O)N[C@@H](Cc1ccc(O)cc1)C(=O)N[C@@H](CC(C)C)C(=O)N[C@@H](CCCNC(=N)N)C(=O)N[C@@H](CCCNC(=N)N)C(=O)N[C@@H](CCC(=O)O)C(=O)N[C@H](C(=O)N[C@@H](CCCNC(=N)N)C(=O)N[C@@H](CCCCN)C(=O)N[C@@H](CCCNC(=N)N)C(=O)NCC(=O)N[C@@H](CCCNC(=N)N)C(=O)N[C@@H](CCCCN)C(=O)N[C@@H](C)C(=O)N[C@H](C(=O)N[C@H](C(=O)N[C@@H](C)C(=O)N[C@@H](Cc1c[nH]c2ccccc12)C(=O)O)[C@@H](C)CC)C(C)C)[C@@H](C)CC` [Syn-sordellicin-43] (H-AGWQRIKAYLRREIRKRGRKAVIAW-OH; N-terminus and C-terminus assumed), the MBC with E. coli (BL21) (BL21) came out at 1 µM; in the series with S. pyogenes (M1), 4 µM; in the series with S. aureus (USA300), 32 µM; with P. aeruginosa (PAO1), 4 µM. Also, the MIC in the series with E. coli (BL21) (BL21, 16 h) is 1 µM; in the series with S. pyogenes (M1) it was 2 µM; in the series on S. aureus (USA300), 32 µM; in the series on P. aeruginosa (PAO1) (P. aeruginosa PAO1, broth microdilution, Mueller-Hinton broth, 1 × 10^6 CFU/mL, 16 h, OD600, triplicate), 2 µM. Further, the “Percent Hemolysis” value in the series with sheep erythrocytes came out at 11.2%. The “GFP leakage / change in fluorescence” value in series [1] was “significant decrease in fluorescence”.
For the compound `CC[C@H](C)[C@H](NC(=O)[C@H](CCCNC(=N)N)NC(=O)CNC(=O)[C@@H](NC(=O)[C@H](CCCCN)NC(=O)[C@H](CCCNC(=N)N)NC(=O)[C@@H](NC(=O)[C@H](Cc1ccc(O)cc1)NC(=O)[C@H](CCCNC(=N)N)NC(=O)[C@H](CCCNC(=N)N)NC(=O)[C@H](CC(C)C)NC(=O)[C@H](CCC(=O)O)NC(=O)[C@H](CCCCN)NC(=O)[C@H](C)NC(=O)[C@@H](NC(=O)[C@H](CCCNC(=N)N)NC(=O)[C@H](CC(N)=O)NC(=O)[C@@H](NC(=O)CNC(=O)[C@H](C)N)[C@@H](C)O)[C@@H](C)CC)[C@@H](C)CC)C(C)C)C(=O)N[C@@H](C)C(=O)N[C@@H](CCCNC(=N)N)C(=O)N[C@@H](CCCCN)C(=O)N[C@@H](Cc1c[nH]c2ccccc12)C(=O)N[C@@H](Cc1c[nH]c2ccccc12)C(=O)O` [Syn-sordellicin-64] (H-AGTNRIAKELRRYIRKVGRIARKWW-OH; N-terminus and C-terminus assumed), the minimum bactericidal concentration (MBC) came to 0.5 µM in the series with E. coli (BL21) (BL21), 1 µM in the series on S. pyogenes (M1), 8 µM in the series on S. aureus (USA300) and 8 µM in the series with P. aeruginosa (PAO1). Also, the MIC in the series on E. coli (BL21) (E. coli BL21) turned out to be 0.25 µM; in the series with S. pyogenes (M1), 1 µM; with S. aureus (USA300) it was 8 µM; in the series with P. aeruginosa (PAO1) (PAO1, 16 h), 8 µM. In addition, the “concentration at which peptide is cytotoxic” value in series [2] was at least 32 µM. The “Percent Hemolysis” value in the series with sheep erythrocytes was found to be 18.8%.
Take `CC[C@H](C)[C@H](NC(=O)[C@H](CCCCN)NC(=O)CNC(=O)[C@H](Cc1ccccc1)NC(=O)[C@H](CCCCN)NC(=O)[C@H](CCCNC(=N)N)NC(=O)[C@H](CC(C)C)NC(=O)[C@H](Cc1ccc(O)cc1)NC(=O)[C@H](CCC(=O)O)NC(=O)[C@H](CC(C)C)NC(=O)[C@H](CC(C)C)NC(=O)[C@H](CCC(=O)O)NC(=O)[C@H](CCCCN)NC(=O)[C@@H](NC(=O)[C@H](CC(C)C)NC(=O)[C@H](CCCNC(=N)N)NC(=O)[C@H](CC(N)=O)NC(=O)[C@H](C)NC(=O)[C@H](CCCCN)NC(=O)[C@H](C)N)[C@@H](C)O)C(=O)N[C@@H](C)C(=O)N[C@@H](CCCNC(=N)N)C(=O)N[C@@H](CCCCN)C(=O)N[C@@H](C)C(=O)N[C@@H](Cc1c[nH]c2ccccc12)C(=O)O` [Syn-xiamencin-96] (H-AKANRLTKELLEYLRKFGKIARKAW-OH; N-terminus and C-terminus assumed): the minimal bactericidal concentration (MBC) is 2 µM in the series with E. coli (BL21) (BL21), 4 µM in the series with S. pyogenes (M1), 8 µM with S. aureus (USA300) and 16 µM with P. aeruginosa (PAO1). The MIC in the series on E. coli (BL21) (BL21, 16 h) is 2 µM; with S. pyogenes (M1), 4 µM; in the series with S. aureus (USA300) it was 8 µM; with P. aeruginosa (PAO1) (PAO1, 16 h) it was 16 µM. Further, the “Percent Hemolysis” value in the series with sheep erythrocytes is 20.0%.

Values taken from article PMC7689250, “Synthetic Peptide Libraries Designed From a Minimal Alpha-Helical Domain of AS-48-Bacteriocin Homologs Exhibit Potent Antibacterial Activity” (Frontiers in Microbiology, 2020).
